Data on 1 compound can be found in ChEMBL document CHEMBL3808363, “2-(Thienothiazolylimino)-1,3-thiazolidin-4-ones inhibit cell division cycle 25 A phosphatase” (Bioorg Med Chem, 2016).

The source made the active and inactive calls. No cut-off for these calls is given here.

Experiment [1] deals with T1, M-phase inducer phosphatase 1 (Homo sapiens, UniProt P30304).
T1 sequence (P30304 whole entry): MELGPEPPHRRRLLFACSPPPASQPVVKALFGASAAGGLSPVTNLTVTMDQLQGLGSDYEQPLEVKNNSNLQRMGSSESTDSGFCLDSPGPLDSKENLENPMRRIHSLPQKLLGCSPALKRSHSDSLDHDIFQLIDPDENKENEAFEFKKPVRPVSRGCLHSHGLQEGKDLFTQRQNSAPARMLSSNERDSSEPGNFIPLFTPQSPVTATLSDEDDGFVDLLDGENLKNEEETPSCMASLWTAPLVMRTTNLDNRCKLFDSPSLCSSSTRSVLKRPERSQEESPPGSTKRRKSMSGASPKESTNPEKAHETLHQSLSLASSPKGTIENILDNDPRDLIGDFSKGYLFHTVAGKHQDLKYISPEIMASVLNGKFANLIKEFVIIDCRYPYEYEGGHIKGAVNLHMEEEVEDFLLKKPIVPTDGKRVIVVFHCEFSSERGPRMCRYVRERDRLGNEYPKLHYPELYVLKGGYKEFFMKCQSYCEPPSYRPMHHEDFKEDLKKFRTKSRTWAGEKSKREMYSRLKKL
Put plainly: Mixed type inhibition of human recombinant full length GST-tagged CDC25A transfected in Escherichia coli BL21-DE3 assessed as enzyme/substrate/inhibitor complex using 3-O-methylfluorescein phosphate as substrate at 5 uM incubated for 20 mins followed by substrate addition measured every 10 mins for 2 hrs by fluorimetric assay.

Experiment [2] concerns the target Cyclin-dependent kinase 1 (Homo sapiens) (UniProt P06493). Put plainly: Effect on CDK1 phosphorylation in human MCF7 cells after 6 hrs by Western blot analysis. The experiment is classed as cell-based. (In general: Immunoblotting shows a protein as a band on a membrane.)
For experiment [3] the target is unchanged. Put plainly: Effect on CDK1 phosphorylation in human MDA-MB-231 after 6 hrs by Western blot analysis.
Experiment [4] concerns MDA-MB-231. Put plainly: Cytotoxicity against human MDA-MB-231 cells assessed as inhibition of cell growth at IC50 concentration after 72 hrs by trypan blue assay. The experiment is classed as functional.
Experiment [5] has as its target T2, M-phase inducer phosphatase 1 (Homo sapiens) (UniProt P30304).
T2 sequence (whole entry): T1 sequence (P30304 whole entry)
Put plainly: Inhibition of human recombinant full length GST-tagged CDC25A transfected in Escherichia coli BL21-DE3 using 3-O-methylfluorescein phosphate as substrate at 10 uM incubated for 20 mins followed by substrate addition measured every 10 mins for 2 hrs by fluorimetric assay in presence of 0.1% triton X 100.

Experiment [6] has as its target T3, M-phase inducer phosphatase 2 (Homo sapiens) (UniProt P30305).
T3 sequence (whole entry): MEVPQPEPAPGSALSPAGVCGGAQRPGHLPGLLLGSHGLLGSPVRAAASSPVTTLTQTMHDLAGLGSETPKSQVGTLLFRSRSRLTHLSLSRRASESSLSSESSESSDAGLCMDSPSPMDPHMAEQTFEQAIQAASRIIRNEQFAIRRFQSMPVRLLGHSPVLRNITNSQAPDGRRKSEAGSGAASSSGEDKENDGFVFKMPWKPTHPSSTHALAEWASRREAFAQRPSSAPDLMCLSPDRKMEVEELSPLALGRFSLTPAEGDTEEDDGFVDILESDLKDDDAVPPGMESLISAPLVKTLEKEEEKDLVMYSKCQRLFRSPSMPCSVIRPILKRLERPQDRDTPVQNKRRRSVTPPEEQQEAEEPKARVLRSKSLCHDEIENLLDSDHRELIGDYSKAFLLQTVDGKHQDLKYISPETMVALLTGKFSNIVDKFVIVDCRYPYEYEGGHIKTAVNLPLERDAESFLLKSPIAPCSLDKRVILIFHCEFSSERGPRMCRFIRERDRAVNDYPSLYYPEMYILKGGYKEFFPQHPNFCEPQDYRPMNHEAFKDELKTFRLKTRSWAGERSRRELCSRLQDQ
Put plainly: Inhibition of human recombinant GST-tagged CDC25B catalytic domain transfected in Escherichia coli BL21-DE3 using 3-O-methylfluorescein phosphate as substrate at 10 uM incubated for 20 mins followed by substrate addition measured every 10 mins for 2 hrs by fluorimetric assay.

Experiment [7] deals with T1, M-phase inducer phosphatase 1. Put plainly: Mixed type inhibition of human recombinant full length GST-tagged CDC25A transfected in Escherichia coli BL21-DE3 assessed as enzyme/inhibitor complex using 3-O-methylfluorescein phosphate as substrate at 10 uM incubated for 20 mins followed by substrate addition measured every 10 mins for 2 hrs by fluorimetric assay.
The target is the same in experiment [8]. Put plainly: Mixed type inhibition of human recombinant full length GST-tagged CDC25A transfected in Escherichia coli BL21-DE3 assessed as enzyme/substrate/inhibitor complex using 3-O-methylfluorescein phosphate as substrate at 10 uM incubated for 20 mins followed by substrate addition measured every 10 mins for 2 hrs by fluorimetric assay.
Experiment [9] addresses T2, M-phase inducer phosphatase 1 (Homo sapiens). Put plainly: Inhibition of human recombinant full length GST-tagged CDC25A transfected in Escherichia coli BL21-DE3 using 3-O-methylfluorescein phosphate as substrate at 10 uM incubated for 20 mins followed by substrate addition measured every 10 mins for 2 hrs by fluorimetric assay.
Experiment [10] deals with MDA-MB-231. Put plainly: Cell cycle arrest in human MDA-MB-231 cells assessed as accumulation at subG1 phase at IC50 concentration after 48 hrs by propidium iodide staining-based flow cytometry. The experiment is classed as functional.
The target in experiment [11] is T4, M-phase inducer phosphatase 3 (Homo sapiens) (UniProt P30307).
T4 sequence (whole entry): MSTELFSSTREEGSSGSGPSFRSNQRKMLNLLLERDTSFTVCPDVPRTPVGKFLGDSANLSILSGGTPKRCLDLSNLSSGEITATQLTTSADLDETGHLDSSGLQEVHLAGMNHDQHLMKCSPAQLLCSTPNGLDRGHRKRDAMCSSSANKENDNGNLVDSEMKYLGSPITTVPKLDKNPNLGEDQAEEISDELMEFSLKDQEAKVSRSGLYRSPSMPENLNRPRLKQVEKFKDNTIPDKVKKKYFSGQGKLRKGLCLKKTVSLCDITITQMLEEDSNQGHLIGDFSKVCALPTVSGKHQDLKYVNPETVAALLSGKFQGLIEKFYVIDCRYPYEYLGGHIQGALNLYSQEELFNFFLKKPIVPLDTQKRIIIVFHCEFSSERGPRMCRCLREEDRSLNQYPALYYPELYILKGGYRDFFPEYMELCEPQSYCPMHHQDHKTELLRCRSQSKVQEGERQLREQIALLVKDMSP
Put plainly: Inhibition of human recombinant full length GST-tagged CDC25C transfected in Escherichia coli BL21-DE3 using 3-O-methylfluorescein phosphate as substrate at 10 uM incubated for 20 mins followed by substrate addition measured every 10 mins for 2 hrs by fluorimetric assay.

In experiment [12] the test system is MDA-MB-231. Put plainly: Induction of reactive oxygen species production in human MDA-MB-231 cells at IC50 concentration up to 6 hrs by DCF-2DA dye based flow cytometry. In kind it is functional, cell-based.
For experiment [13], the system named is MDA-MB-231. Put plainly: Induction of apoptosis in human MDA-MB-231 cells assessed as chromatin condensation after 24 to 48 hrs by DAPI staining based UV fluorescent microscopy. In kind it is functional, cell-based.
Experiment [14] deals with MCF7. Put plainly: Increase in peroxynitryl radical levels in human MCF7 cells at IC50 concentration incubated for 24 hrs by DHR dye based flow cytometry. In kind it is functional, cell-based. For orientation: Flow cytometry measures light scatter and fluorescence of single cells or particles in a stream.
In experiment [15] the test system is MDA-MB-231. Put plainly: Cell cycle arrest in human MDA-MB-231 cells assessed as accumulation at S phase at IC50 concentration after 48 hrs by propidium iodide staining-based flow cytometry (reference value: 21.7 +/- 0.3%). In kind it is functional.

Sequence of Cyclin-dependent kinase 1 (Homo sapiens) (P06493 whole entry, looked up): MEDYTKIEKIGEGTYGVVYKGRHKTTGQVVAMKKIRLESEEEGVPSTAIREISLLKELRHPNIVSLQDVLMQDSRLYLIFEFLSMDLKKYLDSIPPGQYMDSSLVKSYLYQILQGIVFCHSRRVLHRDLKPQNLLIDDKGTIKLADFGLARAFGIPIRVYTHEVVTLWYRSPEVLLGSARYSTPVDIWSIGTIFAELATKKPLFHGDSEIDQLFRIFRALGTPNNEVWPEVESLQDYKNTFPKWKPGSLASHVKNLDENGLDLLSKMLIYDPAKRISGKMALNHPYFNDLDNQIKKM

Broadly, the Ki is a measure of affinity in units of concentration, obtained from inhibition or displacement. The term inhibition denotes the share of the control response that was lost under treatment. As for `COc1ccc(/C=C2/S/C(=N\c3nc4cc(-c5ccc(Cl)cc5)sc4s3)NC2=O)cc1`, the Ki is 12.2 µM in [1], 4.8 µM in experiment [7] and 5.1 µM in experiment [8]. Also, the result in experiment [2], in experiment [3], in experiment [10], in experiment [12] and in experiment [13] was inactive. The “growth inhibition (GI)” value in [4] is 70%. Further, the inhibition in experiment [5] came to 86.2%; in experiment [6], 36.7%; in experiment [9], 70.3%; in experiment [11], 24%. In addition, in experiment [14], the outcome was Active. In addition, the Activity in experiment [15] was 25.8%.
